[BNA] = bridged nucleic acid nucleotide (BNA), bridge type not specified for this compound; d = 2'-deoxy (DNA)

Series [1] relates to human pancreatic cancer SUIT2 cell strain, resistant strain. Description: Gemcitabine sensitivity of gemcitabine-resistant SUIT2 strain. Particulars: SUIT-2. It counts as cell-based. Here is the method:
(§1) A human pancreatic cancer SUIT2 cell strain was prepared by culturing pancreatic cancer cells resistant to the anticancer agent, gemcitabine, for a long period of time in a medium containing gemcitabine at a low concentration (IC50 value, 100 nM for the resistant strain vs. 5 nM for the parent strain). Subcutaneous tumors were prepared in the same manner as that of Example 10, and 200 μg/200 μL of YB-1 ASO AmNA or control antisense was administered into the blood according to the same protocol (once every two weeks, total 2 times).

For series [2], the system named is human pancreatic cancer SUIT2 cell strain, parent strain. Description: Gemcitabine sensitivity of SUIT2 parent strain. The format is cell-based. Particulars: SUIT-2. The method, then: as §1
Series [3] is described as follows: General blood and biochemical examinations, mice with HCT116 sc tumor. Particulars: 10 mg/kg BW i.v. once a week for three weeks, blood one week after final treatment.
Description: (§5) Subcutaneous tumor models were created by subcutaneously transplanting gemcitabine-resistant pancreatic cancer SUIT2-GR cells and large intestine cancer HCT116 cells to the thighs of nude mice. After tumors having a volume of 50 mm^3 were formed, 10 mg/kg BW of #10AmNA YB-1 antisense was administered from the caudal veins once a week over three weeks. The tumor diameters were measured over time.
Series [4] in a line: General blood and biochemical examinations, mice with Suit2-GR sc tumor. Particulars: Suit2-GR sc Tumor; 10 mg/kg BW i.v. once a week for three weeks; blood one week after final treatment.
Description: as §5
Series [5] concerns vascular endothelial HUVEC cells. The series can be described thus: Annexin V-FITC apoptosis observation. The format is cell-based.
A further series concerns HUVEC. Description: Cell cycle analysis by PI flow cytometry, HUVEC. It counts as cell-based. The settings on record: 5 nM, 72 hours. Here is the method:
(§2) In order to elucidate the mechanism of the pancreatic cancer cell and endothelial cell proliferation inhibitory effect observed in Example 2, YB-1 ASO BNA (TCTcctgcaccCTGg, SEQ ID NO: 2, the parts of the capital letters in the sequence correspond to BNAs, the same shall apply to the following examples) was introduced at a concentration of 5 nM into the endothelial cells (1×10^5/well) under the same conditions as mentioned above. After 72 hours from the introduction, the cells were incubated with PI (1 μg/ml) at 37° C. for 30 minutes, and then cell cycle analysis was performed by using a flow cytometer (FACS CantoII).

A further series relates to HPAEC cells. The series can be described thus: Cell cycle analysis by PI flow cytometry, HPAEC. The settings on record: 5 nM, 72 hours. The format is cell-based. The method, then: as §2
Series [6] can be described thus: Safety of administration of YB-1 ASO BNA into blood, blood biochemical examinations.
Description: YB-1 ASO BNA (indicated as “ASO-YBX1” in FIG. 7) at a concentration of 100 μg/200 μL or 200 μg/200 μL was administered once into the blood of nude mice from the caudal veins. After 48 hours, blood was collected, and examined by blood biochemical examinations for ALT, T-Bil, BUN, and creatinin in order to evaluate the liver and kidney functions.
The next series deals with pancreatic cancer cells. The series can be described thus: Proliferation by MTT assay, pancreatic cancer cells. It counts as cell-based. Particulars: final concentration 50 nM, vs control antisense oligo-nucleic acid. Here is the method:
(§3) Then, pancreatic cancer and vascular endothelial cell proliferation-suppressing effects of ASO#10 (also referred to as “YB-1 ASO”, TCTcctgcaccCTGg, SEQ ID NO: 2) were examined. The cells were inoculated into wells of a 96-well plate at a density of 60% confluent, ASO#10 was introduced into the pancreatic cancer cells at a final concentration of 50 nM, and endothelial cells at a final concentration of 5 nM on the next day by using the gene transduction reagent Lipofectamine RNAiMax, and then the proliferation ability was periodically measured by the MTT assay method. […] In addition, it was also confirmed that gastric cancer and breast cancer are also knocked down by ASO#10.
(Tetrazolium dyes change colour on reduction, which living cells bring about.)

Series [7] has as its system vascular endothelial cells. Description: Proliferation by MTT assay, endothelial cells. It counts as cell-based. The settings on record: final concentration 5 nM, vs control antisense oligo-nucleic acid. The method, then: as §3
The test system of series [8] is YB-1. The series can be described thus: YB-1 expression in tumor, liver, kidney after administration into blood, real-time RT-PCR. The format is in vivo, nude mice. The settings on record: HCT116 model, 200 μg/200 μL caudal vein, once a week, total 2 times, 48 hours after final administration. Here is the method: After 48 hours from the final administration, subcutaneous tumors, livers, and kidneys were extracted, RNAs were extracted, and YB-1 expression was analyzed by real-time RT-PCR.
In general terms: In qPCR the cycle at which signal appears reflects the starting amount.

For series [9], the system named is HCT116 large intestine cancer cells. Description: Administration of YB-1 ASO BNA into blood, HCT116 subcutaneous tumor. It counts as in vivo, nude mice. The settings on record: 200 μg/200 μL caudal vein, once a week, total 3 times. From the text:
(§4) The SUIT2 pancreatic cancer cells or HCT116 large intestine cancer cells were subcutaneously transplanted into the thighs of nude mice to prepare subcutaneous tumors in a size of 6 to 7 mm. […] YB-1 ASO BNA suppressed proliferation of the tumors to a size of ¼ to ⅕ of those observed with the control antisense BNA (FIG. 5).

Series [10] relates to MiaPaCa-luc pancreatic cancer cells. Description: Local administration into MiaPaCa-luc subcutaneous tumors, IVIS imaging. It counts as in vivo, nude mice. Particulars: 10 μM with atelocollagen 1:1, local, once a week, total twice; vs control antisense oligo BNA. The method, then: The MiaPaCa-luc pancreatic cancer cells stably expressing luciferase were subcutaneously transplanted into the thighs of nude mice to prepare subcutaneous tumors in a size of 6 to 7 mm. A mixture of YB-1 ASO BNA (final concentration, 10 μM) and atelocollagen implant at a volume ration of 1:1 was locally administered into the tumors (once a week, total twice), and the tumor volume (luciferase activity) was evaluated over time by IVIS imaging.

In series [11] the test system is SUIT2 pancreatic cancer cells. Description: Administration of YB-1 ASO BNA into blood, SUIT2 subcutaneous tumor. The format is in vivo, nude mice. The settings on record: 200 μg/200 μL caudal vein, once a week, total 3 times.
Text: as §4

The subject of series [12] is YB-1. Description: Screening of antisense oligo-nucleic acids by YB-1 expression-inhibitory ability in cancer cells (Lipofectamine RNAiMax). It counts as cell-based, human.
In the next series the test system is YB-1 and CD31. The series can be described thus: Immunostaining of YB-1 and CD31 in frozen tumor sections. It counts as in vivo, nude mice. The settings on record: HCT116 model; vs control antisense BNA.
For the next series, the system named is CDK1 and Cyclin B1. Description: Protein expression of CDK1 and Cyclin B1 in HUVEC and HPAEC cells. The format is cell-based. Particulars: vs control antisense oligonucleotide.

As to `Nc1ccn([C@@H]2O[C@H](CO)[C@@H](O)C2(F)F)c(=O)n1` [gemcitabine], the concentration for half-maximal inhibition (IC50) (usually the midpoint of a concentration-inhibition curve) in [1] was 100 nM; in series [2] it was 5 nM.

In series [3], “CATttcgaagtACTc (antisense CATTTCGAAGTACTC; AmNA-modified units marked by uppercase, key not given here) [Ctrl]” displayed an ALT of 26 ± 3 IU/L, an AST of 80 ± 10 IU/L, a BUN of 21.2 ± 2.0 mg/dL and a CRE of 0.07 ± 0.03 mg/dL. In [3], the HCT was 35.7 ± 2.7%, the HGB is reported as 13.1 ± 0.3 g/dL, the PLT is recorded as 136.2 ± 10.8 ×10^4/μl and the RBC is 715 ± 55 ×10^4/μl. Also, in [3], the T-BIL is given as 0.06 ± 0.02 mg/dL and the WBC is reported as 48 ± 8 ×10^2/μl. In [4], the ALT is listed as 45 ± 19 IU/L, the AST was determined as 170 ± 183 IU/L, the BUN came to 27.9 ± 5.4 mg/dL and the CRE is 0.10 ± 0.03 mg/dL. In series [4], the HCT turned out to be 38.5 ± 2.1%, the HGB turned out to be 12.2 ± 0.6 g/dL, the PLT was 100.5 ± 33.3 ×10^4/μl and the RBC is listed as 779 ± 39 ×10^4/μl. Also, in series [4], the T-BIL is recorded as 0.03 ± 0.01 mg/dL and the WBC is 29 ± 12 ×10^2/μl.

Take “CATttcgaagtACTc (antisense CATTTCGAAGTACTC; sugars from the 5' end [BNA]3 d8 [BNA]3 d1, backbone and methylation of C not given here) [control antisense oligo-BNA, reference compound]”: the “Annexin V-positive cells” value in [5] is “hardly observed”. In addition, the G2/M fraction turned out to be 22.1% in the series on HUVEC and 28.5% with HPAEC cells. Further, the subG1 fractionation in the series with HUVEC is reported as 2.0%; in the series on HPAEC cells, 1.3%. Further, the “ALT, T-Bil, BUN, creatinin (liver and kidney functions)” value in [6] (100 μg/200 μL or 200 μg/200 μL once, caudal vein, 48 hours) is “any functional abnormality was not observed”. Moreover, the “liver function markers AST and T-Bil” value in series [6] (repeatedly administered 3 times) is recorded as “did not show any functional abnormality”.

Take “TCTcctgcaccCTGg (TCTCCTGCACCCTGG; chemistry not fully specified) [ASO#10]”: the “Annexin V-positive cells” value in series [5] is given as “increase in Annexin V-positive cells”. Besides, the “pancreatic cancer cell proliferation inhibitory effect” value in the series on pancreatic cancer cells was “Significantly higher”. The “endothelial cell proliferation inhibitory effect” value in series [7] is reported as “Significantly higher”. In addition, the “YB-1 expression in the tumors, livers, and kidneys as fraction of control antisense BNA” value in the series on YB-1 [8] (listed as YB-1 ASO BNA) is listed as “about ⅓”; in the series on YB-1 [8] (listed as YB-1 antisense oligo BNA), “suppresses expression of YB-1”. Also, the “tumor size as fraction of that with control antisense BNA” value in series [9] and in series [11] was “¼ to ⅕” each time. Further, the “tumor volume (luciferase activity)” value in series [10] is listed as “significant suppression”. For the same molecule, the G2/M fraction is listed as 14.5% in the series on HUVEC and 14.0% in the series on HPAEC cells. The subG1 fractionation worked out at 17.7% in the series with HUVEC and 18.7% in the series with HPAEC cells. The “YB-1 knockdown in gastric cancer and breast cancer” value in the series on YB-1 [12] was “knocked down”. Moreover, the “expression of YB-1 and CD31 in tumor tissues (immunostaining)” value with YB-1 and CD31 is reported as “reduced”. In the series on CDK1 and Cyclin B1, the “expression levels of CDK1 and Cyclin B1” value is reported as “clearly suppressed”.

These data come from patent US20170211073A1, “ANTISENSE ANTINEOPLASTIC AGENT” (priority 2014, published 2017).
